Measured values from patent publication US12491199B2, “Polycannabinoids, compounds, compositions and methods of use” (priority 2020, dated 2025).
Entries after “also recorded” stand apart in the source; their conditions may differ. Read-outs that look alike come from different tables or passages of the source.

Experiments:
Type in all cases: physicochemical
[1] = Heat induced by-product analysis (open vials, 175° C., 30 minutes, convection oven; NMR, UPLC/MS/MS); settings: for remaining residue after heating: 100 mg sample, open vial, convection oven; for remaining residue after heating / NMR analysis of the sample residues after heating / amount of by-product formation (LC/MS): 175° C., 30 minutes
Protocol: Heat induced by-product analysis experiment: Open vials containing 100 mg of CBD, CBD-Diacetate, and Poly(CBD) were heated at 175° C. for 30 minutes in a laboratory convection oven. After heating, the remaining residue was weighed at 89.64 mg, 91.35 mg, and 99.86 mg for each compound, respectively. Samples were then analyzed using ^1H NMR. […] Ultra performance liquid chromatograph tandem mass spectrometry (UPLC/MS/MS) was conducted to compare formed by-products against nine known cannabinoid standards.
Popular types of consumer cannabis products include tinctures, vaporizer liquids, and baked foods, while potential pharmaceutical products include oil extracts, solutions, and tablet. In each case, cannabinoids within the products are subjected to elevated temperatures for short periods of time during manufacturing or, in the case of vaporizer liquids, when being consumed. FIGS. 5-6 show the rates of degradation after short-term exposure to temperatures from 150-220° C. Table 1 includes the values of onset temperatures for thermal degradation and degradation rates for each compound. The phytocannabinoids degraded at rates from 0.2 wt % per minute to ˜10 wt % per minute at 150° C. and 220° C., respectively. Thermal degradation of both poly(cannabinoid)s remained less than 0.1 wt % over the same range, stabilizing the phytocannabinoid. Open vials containing 100 mg samples of CBD, CBD-diacetate, and poly(CBD-adipate) were heated at 175° C. in a laboratory convection oven for 30 minutes, after which 89.64 mg, 91.35, and 99.86 mg remained of each sample, respectfully. […]. Conversion of phytocannabinoids to poly(cannabinoid)s offers a preservative effect, eliminating the production of additional cannabinoids.

[2] = Non-isothermal thermogravimetric analysis (TGA), onset of thermal degradation
Protocol: (§1) Materials and Methods: Cannabidiol (CBD) was purchased from EcoGen BioSciences and used as received. Cannabigerol (CBG) was purchased from Mile High Labs, Inc and used as received. All other chemicals were purchased from Sigma Aldrich and used without further purification unless otherwise noted. Unless otherwise indicated, ^1H NMR was collected using a Bruker AVANCE 500 MHz instrument. Thermo Gravimetric Analysis was conducted using a TA Instruments TGA Q-500 and DSC was collected using a TA Instruments DSC Q-20. GPC was taken using a WATERS GPC equipped with a 1515 HPLC Pump and Waters 717Plus Autoinjector. Ultra Performance Liquid Chromatograph tandem Mass Spectrometry (UPLC/MS/MS) was conducted using a Waters Acquity UPLC-TQD equipped with a PDA detector.
Thermogravimetric Analysis (TGA): Non-Isothermal degradation: Samples were heated in pre-tared platinum pans under nitrogen atmosphere to 700° C. at a heating rate of 10° C./minute.

[3] = Isothermal degradation by TGA in the presence of oxygen; settings: 60 minutes
Protocol: as §1
Isothermal degradation: Samples were heated in pre-tared pans while in the presence of oxygen to either 150, 160, 180 or 220° C. at a heating rate of 10° C./minute. They were left at the high temperature for 60 minutes. The degradation rate was determined from the slope of the weight % vs Time plots.

[4] = nitrogen atmosphere, heated to 700° C. at 10° C./minute
[5] = heated under the same conditions after purging thoroughly with argon

Compound: C=C(C)[C@@H]1CCC(C)=C[C@H]1c1c(OC(C)=O)cc(CCCCC)cc1OC(C)=O [CBD-Diacetate, Cannabidiol-Diacetate]
- remaining residue after heating [1]: 91.35 mg
- NMR analysis of the sample residues after heating [1]: New peaks formed
- amount of by-product formation (LC/MS) [1]: 25.32%
- NMR analysis of the sample residues after heating ([1]; listed as CBD-diacetate): formation of additional compounds
- Td, onset for thermal degradation according to non-isothermal TGA [2, 4]: 185 °C
- extrapolated onset degradation temperature (TGA) ([2]; non-isothermal TGA, FIGS. 3-4): 185 °C
- Degradation rate from isothermal TGA ([3]; 150° C.): 0.54 weight % loss per minute
- Degradation rate from isothermal TGA ([3]; 160° C.): 0.54 weight % loss per minute
- Degradation rate from isothermal TGA ([3]; 180° C.): 0.84 weight % loss per minute
- Degradation rate from isothermal TGA ([3]; 220° C.): 5.65 weight % loss per minute

Compound: C=C(C)[C@@H]1CCC(C)=C[C@H]1c1c(O)cc(CCCCC)cc1O [CBD, cannabidiol]
- remaining residue after heating [1]: 89.64 mg
- NMR analysis of the sample residues after heating [1]: New peaks formed; also recorded: formation of additional compounds
- amount of by-product formation (LC/MS) [1]: 10.68%
- Δ8-THC detected using 1H NMR [1, 5]: 0.21%
- Δ9-THC detected using 1H NMR [1, 5]: 0.16%
- Td, onset for thermal degradation according to non-isothermal TGA [2, 4]: 184 °C
- extrapolated onset degradation temperature (TGA) ([2]; non-isothermal TGA, FIGS. 3-4): 184 °C
- Degradation rate from isothermal TGA ([3]; 150° C.): 0.18 weight % loss per minute
- Degradation rate from isothermal TGA ([3]; 160° C.): 0.43 weight % loss per minute
- Degradation rate from isothermal TGA ([3]; 180° C.): 0.94 weight % loss per minute
- Degradation rate from isothermal TGA ([3]; 220° C.): 9.09 weight % loss per minute

Compound: CCCCCc1cc(O)c(C/C=C(\C)CCC=C(C)C)c(O)c1 [CBG, cannabigerol]
- Td, onset for thermal degradation according to non-isothermal TGA [2]: 191 °C
- extrapolated onset degradation temperature (TGA) [2]: 191 °C

Compound: CCCCCc1cc(OC(C)=O)c(C/C=C(\C)CCC=C(C)C)c(OC(C)=O)c1 [CBG-Diacetate, Cannabigerol-Diacetate]
- Td, onset for thermal degradation according to non-isothermal TGA [2, 4]: 223 °C
- Degradation rate from isothermal TGA ([3]; 150° C.): 0.08 weight % loss per minute
- Degradation rate from isothermal TGA ([3]; 160° C.): 0.11 weight % loss per minute
- Degradation rate from isothermal TGA ([3]; 180° C.): 0.49 weight % loss per minute
- Degradation rate from isothermal TGA ([3]; 220° C.): 1.92 weight % loss per minute
